Test results taken from patent US4645858A, “Pentanedioic acid derivatives” (G. D. Searle & Co., priority 1985, dated 1987).
One block for each compound: values may come before it.

Experiments:
[1] = tested on: male Rhesus monkey; test: In vivo serum cholesterol test in male Rhesus monkeys; conditions: 60 mg/kg/day
Description: In vivo activity is tested as follows:
Initial serum total cholesterol, triglycerides, and lipoprotein cholesterol values are determined 3 times for each male Rhesus monkey used before treatment with a test compound begins. The test compound is administered in an initial dose of 60 mg/kg for 2 weeks and blood samples are taken to determine if rebound occurs. […] Statistical comparisons are made using the two tailed student's test.

[2] = target: T1, HMG CoA reductase (Rattus norvegicus, UniProt P51639); test: HMG CoA reductase activity assay (rat liver microsomal preparation); type: biochemical
T1 construct: The resultant supernatants are discarded and the residues suspended in half the volume of homogenization medium previously employed; from tissue; host or cells: liver of male Charles River CD rats treated with 20,25-diazacholesterol; 100,000×g pellet (microsomes) of the homogenate
T1 sequence (P51639 1-887): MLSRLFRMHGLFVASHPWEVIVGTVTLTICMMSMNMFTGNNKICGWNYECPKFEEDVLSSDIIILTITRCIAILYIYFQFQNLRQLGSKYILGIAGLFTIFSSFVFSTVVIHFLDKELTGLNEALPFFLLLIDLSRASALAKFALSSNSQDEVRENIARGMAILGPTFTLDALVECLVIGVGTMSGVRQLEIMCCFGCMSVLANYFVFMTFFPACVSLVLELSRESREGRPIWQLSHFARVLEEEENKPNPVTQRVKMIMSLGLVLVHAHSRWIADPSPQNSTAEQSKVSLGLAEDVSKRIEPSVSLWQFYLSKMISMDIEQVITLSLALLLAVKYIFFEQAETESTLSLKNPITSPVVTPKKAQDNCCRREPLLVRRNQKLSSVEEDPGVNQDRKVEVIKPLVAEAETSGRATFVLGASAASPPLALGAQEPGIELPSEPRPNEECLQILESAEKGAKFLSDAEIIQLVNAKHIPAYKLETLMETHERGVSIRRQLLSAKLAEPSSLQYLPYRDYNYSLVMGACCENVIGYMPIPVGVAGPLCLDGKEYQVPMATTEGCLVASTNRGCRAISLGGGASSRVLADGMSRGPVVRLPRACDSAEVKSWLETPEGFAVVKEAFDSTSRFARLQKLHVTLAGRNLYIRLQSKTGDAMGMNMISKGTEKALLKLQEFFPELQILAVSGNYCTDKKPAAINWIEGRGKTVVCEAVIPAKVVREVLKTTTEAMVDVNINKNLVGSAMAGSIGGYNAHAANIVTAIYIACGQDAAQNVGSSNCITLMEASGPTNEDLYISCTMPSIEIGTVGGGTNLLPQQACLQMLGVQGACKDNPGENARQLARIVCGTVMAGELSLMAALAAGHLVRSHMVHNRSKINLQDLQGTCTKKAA

SMILES: CC(C)(C)CCCCCCCCCCCC(O)(CC(=O)O)CC(=O)O
reduced serum cholesterol ([1]; after 14 days of treatment, Rhesus monkey): 30%

IC50 ([2]; read-out: IC50 (HMG CoA reductase inhibition)): 52 µM
SMILES: O=C(O)CC(O)(CCCCCCCCCCC1CCCCC1)CC(=O)O

SMILES: CCCCCCCCCCCCCCCC(O)(CC(=O)O)CC(=O)O
acute toxicity ([1]; Rhesus monkeys): acute toxicity in 2 of 4 monkeys

HMG CoA reductase inhibition ([2]; at concentrations at least up to 1000 μm): inactive
SMILES: O=C(O)CC(O)(CC(=O)O)CC1CCCC1
